Source: patent US11485993B2, “Therapeutic drug monitoring” (Fastinov S.A., priority 2017, dated 2022)

Assays:
S. aureus ATCC 29213 = experiment: Flow cytometric measurement of the antimicrobial activity of vancomycin in human serum; type: cell-based; conditions: S. aureus ATCC 29213, flow cytometry, FIGS. 5A and 5B
Method: Material and Methods. S. aureus ATCC 29213 was incubated for 1 hour with serial concentrations of vancomycin (4 μg/ml to 0.03 μg/ml) in donor drug free human serum and stained with adequate fluorochrome. The intensity of fluorescence and the changes in the scattergram of the bacterial population were recorded after flow cytometry analysis. Twenty samples of serum collected from patients receiving vancomycin were obtained from the biochemistry lab. The vancomycin drug concentrations were analyzed by Architect iVancomycin (Abbott) using the Architect i1000 SR analyzer (Abbott). Architect iVancomycin is an in vitro chemiluminescent microparticle immunoassay (CMIA) for the quantitative measurement of vancomycin in human serum or plasma. In parallel, serum samples were incubated with the S. aureus control strain, after 10 serial dilutions (1:2) and analyzed by flow cytometry (Accury, BD) according the protocol described in Example 1. A flow cytometric template of cell analysis was defined in order to include the majority of the bacterial population. A comparison of the concentrations obtained with the Architect iVancomycin method and with the new flow cytometric method was performed using Student's T test.

E. coli ATCC 25922 = experiment: Flow cytometric measurement of the antimicrobial activity of colistin in human plasma; type: cell-based
Method: Serial dilutions of colistin (Sigma), ranging between 0.008 and 2 μg/ml, were inoculated in human plasma (free of colistin) and incubated with E. coli ATCC 25922 during 60 minutes and afterwards stained with a fluorescent dye and analyzed in a flow cytometer (Accuri, BD) using a protocol previously optimized (FIG. 3): a flow cytometric template of cell analysis was defined in order to include the majority of the bacterial population and at least 20,000 cells are analyzed according size, complexity and intensity of fluorescence on the different fluorescent channels.

Molecule: CN[C@H](CC(C)C)C(=O)N[C@H]1C(=O)N[C@@H](CC(N)=O)C(=O)N[C@H]2C(=O)N[C@H]3C(=O)N[C@H](C(=O)N[C@H](C(=O)O)c4cc(O)cc(O)c4-c4cc3ccc4O)[C@H](O)c3ccc(c(Cl)c3)Oc3cc2cc(c3O[C@@H]2O[C@H](CO)[C@@H](O)[C@H](O)[C@H]2O[C@H]2C[C@](C)(N)[C@H](O)[C@H](C)O2)Oc2ccc(cc2Cl)[C@H]1O [vancomycin]
- cellular lesion with increasing concentration (reduction of cell density plot, increase of intensity of fluorescence) (S. aureus ATCC 29213): a dose effect cellular lesion is evident

Molecule: colistin
- morphological changes of the bacterial cell population after serial increasing concentrations (E. coli ATCC 25922; E. coli ATCC 25922, flow cytometry scattergrams): Morphological changes were evident
- amount of cells at the acquisition gate after incubation with increasing concentrations (E. coli ATCC 25922; E. coli ATCC 25922, flow cytometry, FIG. 4): a dose-dependent effect was achieved
